Holding throughout (assay type): cell-based, feline
Experiment [1] concerns fTAS2R38. As to the kind of experiment: Fluo-4AM calcium assay, cells transiently expressing fTAS2R38 with Gα16gust44. The method, then: (§1) Cell lines that transiently express a desired TAS2R disclosed herein are generated by transfecting the appropriate expression vector, e.g., pcDNA3.1D-FLAGV5His-TAS2R38, constructed as described above in Ex. 2A into cells of a eukaryotic cell line (e.g., ATCC #CRL-11268 or Life Technologies, Cat# R700-07).
(§2) On day 0, 60,000 cells per well are plated on poly lysine coated, black 96 well plates with clear bottoms (Costar). The following day the cells are transfected with 150 ng TAS2R38 expression vector, e.g., pcDNA3.1D-FLAGV5His (Invitrogen) along with 45 ng of Gα16 chimera containing the last 44 amino acids of rat gustducin (Gα16gust44) with 0.5 ul Lipofectamine 2000 (Invitrogen) per well. Cells are then incubated 22-44 hours at 37° C. 5% CO2.
(§3) The expression of fTAS2R38 is evaluated by testing for the presence of a functional response to a known hTAS2R38 ligand (e.g., PTC), determined via automated calcium imaging using a Fluo-4AM (Life Technologies Corporation) Calcium Assay. Fluo-4AM is a fluorescent indicator of intracellular calcium dynamics (change in concentration) and allows monitoring changes in the calcium concentration, particularly an increase in response to receptor activation occurring after agonist exposure.
(§4) Testing for a functional response of fTAS2R38 to the known hTAS2R38 ligands, PTC and PROP, and of fTAS2R43 to the known hTAS2R43 ligands, aloin, denatonium and saccharine), was determined via automated calcium imaging using the Fluo-4AM (Life Technologies Corporation) Calcium Assay.

Experiment [2] concerns fTAS2R38. As to the kind of experiment: Fluo-4AM calcium assay, stable Gα16-gustducin 44/TAS2R38 cell line. An excerpt:
Fluo-4AM is a fluorescent indicator of intracellular calcium dynamics (change in concentration) and allows monitoring changes in the calcium concentration, particularly an increase in response to receptor activation occurring after agonist exposure.

A further experiment concerns fTAS2R43. Description: Fluo-4AM calcium assay, cells transiently expressing fTAS2R43 with Gα16gust44. The method, then:
as §1, §2, §3
Generation of cell lines transiently expressing the other fTAS2Rs disclosed herein is analogous.
as §4

Molecules are shown by their SMILES.

As to `CCCc1cc(=O)[nH]c(=S)[nH]1` [PROP, 6-n-propylthiouracil], the stimulation of receptor result in the experiment on fTAS2R38 [1] (30 μM PROP, transient expression) was “not stimulated”. Further, the “activation of cell line” value in the experiment on fTAS2R38 [2] (30 μm PROP) is listed as “not activated”.

As for `NC(=S)Nc1ccccc1` [PTC, phenylthiocarbamide], the activation over baseline in the experiment with fTAS2R38 [1] (100 μM PTC, transient expression) was 81%; with fTAS2R38 [2] (100 μM PTC), 90%.

Consider `CCCN(CCC)S(=O)(=O)c1ccc(C(=O)O)cc1` [probenecid, p-(dipropylsulfamoyl)benzoic acid], for which the “inhibition of the response to PTC” value in the experiment on fTAS2R38 [1] (1 mM probenecid, response of fTAS2R38 to PTC) is recorded as “inhibited”. Further, the “inhibition of the response to aloin” value in the experiment on fTAS2R43 (1 mM probenecid, response of fTAS2R43 to aloin) is listed as “inhibited”. The “inhibition of the response to denatonium” value with fTAS2R43 (1 mM probenecid, response of fTAS2R43 to denatonium) is given as “inhibited”.

Regarding `O=C1NS(=O)(=O)c2ccccc21` [saccharin], the stimulation of receptor entry in the experiment with fTAS2R43 (6.7 mM saccharin, transient expression) is on record as “not stimulated”.

For the origin of these results see patent publication US10295529B2, “Feline bitter taste receptors and methods” (Applied Food Biotechnology, Inc., priority 2013, dated 2019).
